# Data published in patent publication US8383111B2, “Inotropic antibodies and therapeutic uses thereof” (priority 2002, dated 2013).
# “Also recorded” adds a separate entry of the source. Like-named read-outs stand apart in the source and are kept apart here.
# Key:
# rat ventricular myocytes = assay: Measurement of cell contraction in isolated rat ventricular myocytes; format: cell-based
# Procedure: Ventricular cardiac myocytes were isolated from adult Sprague-Dawley rats (2-3 months old; weight 225-300 g) using standard enzymatic techniques. Briefly, following anesthesia (sodium pentobarbital, 100 mg/kg), the heart was quickly removed from the chest and aortic perfused at constant pressure (100 cmH2O) at 37° C. for 3 minutes with a Ca^2+-free bicarbonate-based buffer containing 120 mM NaCl, 5.4 mM MgSO4, 1.2 mM NaH2PO4, 5.6 mM glucose, 20 mM NaHCO3, and 5 mM taurine, in the presence of O2 (95%)-CO2 (5%). The enzymatic digestion was initiated by adding collagenase (Worthington Type II, 1 mg/ml) to the perfusion solution. Calcium (50 µM) was added to the enzyme solution when the heart became swollen. About 7 minutes later, the left ventricle was quickly removed, cut into several pieces, and further digested on a shaker (60-70 rpm) for 10 minutes in the same enzyme solution. The supernatant containing the dispersed myocytes was filtered into a test tube and gently centrifuged at 500 rpm for 1 minute. […]
# Cardiac myocytes were isolated from wild-type adult Sprague-Dawley rats, using a standard enzymatic method described previously (Xu, K. Y., et al., (2002) BBRC, 289:167-172). […] Cell length was monitored from the bright-field image (650 nm to 750 nm red light illumination) by an optical edge-tracking method using a photodiode array (model 1024 SAQ, Reticon) with a 3-ms time resolution. […]
# [1] = system: mouse heart left ventricle; assay: Measurement of mice cardiac contraction in vivo (pressure-volume catheter)
# Procedure: Male wild-type mice (CD1, Charles River, 32-40 g) were utilized for this study. Mice In vivo cardiac functions were assessed by pressure-volume catheter in anesthetized mice. Briefly, mice were induced with 5% isofluorane, anesthetized with an intraperitoneal injection of urethane (300-500 mg/kg), etomidate (5 mg/kg) and morphine (0.5 mg kg-1), and intubated with a blunt 19 G needle inserted via tracheostomy. […] Ventilation was initiated with 100% oxygen using a custom-designed, constant flow ventilator delivering a tidal volume of […] at 120 breaths per min. The left external jugular vein was cannulated with a 30 G needle connected to an infusion pump. Modest volume expansion was provided (150 µL of 12.5% human albumin) at 50 µL/min. Following stabilization, a lateral incision was made at the xyphoid cartilage to expose the left ventricular (LV) apex. The 1.4F pressure-volume catheter (SPR-839, Millar Instruments Inc., Houston, Tex., USA) was inserted via an apical needle puncture with a 26 G needle, and advanced along the cardiac long axis. A 2F pacing catheter (NuMed, Nicholville, N.Y., USA) was placed in the esophagus, dorsal to the left atrium. Atrium was paced using 5-7 V, 2 ms pulses (SD25, Grass Instruments, Quincy, Mass., USA). Calibration of the volume signal was performed using a 5-10 µL bolus of 30% hypertonic saline injected into the jugular vein to determine the signal offset and ultrasound flow probe (AT01RB, Transonic Systems Inc.) placed around the thoracic aorta to determine signal gain. Data were digitized at 2 kHz and stored to disk for off line analysis.
# Mice cardiac atria pacing were maintained at constant beating (600 beats/min). The hearts were infused with PBS (5 µl/min) for 10 min prior for administration of SSA78 infusion (5 µl/min) for 30 minutes and following by 10 min PBS washout at 5 µl/min. […] Steady-state indices were derived from 10 consecutive averaged beats. Cardiac preload was indexed as the left ventricular end-diastolic volume (EDV) and end-diastolic pressure (EDP). Cardiac afterload was evaluated as effective arterial elastance (Ea; ratio of LV systolic pressure to stroke volume). This parameter is not preload dependent and had been validated to closely approximate total afterload, which incorporates systemic vascular resistance, aortic impedance, and the reflected wave properties of the vasculature. Myocardial contractility was indexed by cardiac output (CO), dPdt max, dPdt max normalized to instantaneous developed pressure (dPdt max/IP), the load-independent end-systolic pressure-volume relationship (Ees) and preload recruitable stroke work (PRSW). Diastolic perform performance was measured by dPdt min and the time constant of ventricular relaxation.
# rat cardiac myocytes = assay: Measurement of intracellular Ca2+ transients; format: cell-based; details: rat heart cells; mean of 12 independent experiments
# Procedure: Rat cardiac myocytes were loaded with 50 µg of a cell permeable fluorescent Ca.2+ probe, Indo-1/acetoxymethyl-ester (Indo-1/AM, Molecular Probes, Inc., Eugene, Oreg.) for 10 min and then resuspended in HEPES-buffered solution in the presence of 1 mM Ca.2+ and stored in the dark at room temperature for 60 min before be utilized for the experiments. The Indo-1 loaded cells were placed on the stage of a modified inverted microscope (model IM-35; Carl Zeiss, Inc., Thornwood, N.Y.) equipped for simultaneous recording of Indo-1 fluorescence and cell length. Cells were electrically paced at 0.5 Hz at room temperature and the excitation wavelength was selected by a 350-nm interference filter (bandwidth 10 nm; Oriel Corp., Stratford, Conn.). The ratio of emission intensity at 410 nm to that at 490 nm was computed offline as an index of intracellular Ca.2+ (Cai^2+) transient. The peak amplitude of the transient is defined as the difference of the 410:490 fluorescence ratio before and after electrical stimulation with or without antibody.
# (Na^++K^+)-ATPase [2] = assay: Immunofluorescent staining of antibody in rat cardiac myocytes and CV-1 cells; format: binding, rat; African green monkey; details: for competition with the Jianye-2 antibody binding site (Jianye-2 antibody staining in presence of competitor): 1 mM ouabain or strophanthidin
# Excerpt: FIG. 1 (which includes FIGS. 1A through 1F) are photographs showing the immunofluorescent staining of Jianye-2 antibody in rat cardiac myocytes and African green monkey CV-1 cells, FIGS. 1A-1B are photographs of the confocal image of rat cardiac myocytes in the presence of Jianye-2 (FIG. 1A) or with both Jianye-2 antibody and peptide blocker (FIG. 1B). […] FIG. 1D is a photograph of a single CV-1 cell image at 3000× FIGS. 1E-1F are photographs showing Jianye-2 antibody staining in the presence of either 1 mM ouabain (FIG. 1E) or strophanthidin (FIG. 1F).
# Confocal image of rat cardiac myocytes in the presence of Jianye-2, shown in FIG. 1A or with both Jianye-2 antibody and peptide blocker (FIG. 1B). […] Jianye-2 antibody staining in the presence of either 1 mM ouabain (FIG. 1E) or strophanthidin (FIG. 1F). […] Time runs from left to right. […] Columns B, C, D show the results obtained 10, 20, 30 min after administration of either buffer (upper panel) or Jianye-2 antibody (lower panel, 85 nM). Enzyme activity was monitored in cell homogenates under the same experimental condition. […] The data represent a mean of 12 independent experiments. […] The data represent a mean of four independent experiments.
# (Na^++K^+)-ATPase [3] = biological target: T1, (Na^++K^+)-ATPase (Rattus norvegicus, UniProt P06685); assay: Determination of (Na^++K^+)-ATPase activity; format: biochemical; details: monitored in cell homogenates under the same experimental condition as contraction
# T1 construct: Rat cardiac sarcolemmal (SL) vesicles were isolated from rat heart muscle by sucrose flotation method; from tissue; host or cells: rat heart muscle (sarcolemmal vesicles, SDS treatment and sucrose gradient)
# heart failure rats = assay: Immunization with KX-1 peptide vaccine in heart failure rat model (echocardiography); format: in vivo; details: peptide injected as vaccine, TiterMax Gold adjuvant, vs control heart failure rat without immunization
# Procedure: FIG. 9 is a graph showing the effect of immunization with KX-1 on the rat cardiac heart failure function. The peptide DVEDSYGQQWTYEQR (SEQ ID NO: 2) was injected into the animal as a vaccine to reduce the rate of progression of heart failure in the heart failure rat model. TiterMax Gold was used as an adjuvant throughout the experiment.
# Echocardiography (Echo) uses sound waves to form a picture of the heart valves and heart muscle. The Echo machine sends sound waves to a transducer (a sound sensitive instrument) that is placed on the animal's chest. The sound waves are reflected by the heart was (muscle) and heart valves and back to the transducer, which changes the sound into a picture. Gel is applied on the rat chest and a transducer is placed over the heart area. Heart structures are examined by changing the direction of the transducer. The sound waves cause no discomfort. Thus, an Echo detects the changes and provides information about heart chamber size, wall motion, valve movements, and structural changes in and around the heart.
compound,measurement,setting,value
Jianye-2 antibody: polyclonal rabbit IgG recognizing the RSATEEEPPNDD (SEQ ID NO: 1) peptide (H1-H2 domain) of the alpha-subunit of (Na++K+)-ATPase,rat heart cell contraction (time course),"rat ventricular myocytes; 85 nM antibody, 10, 20, 30 min after administration, vs buffer",enhanced rat heart cell contraction
same,EC50,"rat ventricular myocytes; dose-dependent contractile response in rat ventricular myocytes, mean of four independent experiments, read-out: half maximal contractile response (EC50)",35 nM
same,first order rate constant of increase in mouse heart contraction,[1],1.06 %/min
same,first order rate constant of increase in mouse heart contraction,[1]; 3.4 µM antibody,1.06 %/min
same,"mouse heart contraction, percent of background control (0 min as 100%)","[1]; 3.4 µM antibody, 5 min",108(.+−.5.3) %
same,"mouse heart contraction, percent of background control (0 min as 100%)","[1]; 3.4 µM antibody, 10 min",113(.+−.7) %
same,"mouse heart contraction, percent of background control (0 min as 100%)","[1]; 3.4 µM antibody, 15 min",116(.+−.10) %
same,"mouse heart contraction, percent of background control (0 min as 100%)","[1]; 3.4 µM antibody, 20 min",122(.+−.9.0) %
same,first order rate constant of increase in mouse heart contraction,[1]; 6.0 µM antibody,2.16 %/min
same,"mouse heart contraction, percent of background control (0 min as 100%)","[1]; 6.0 µM antibody, 5 min",115(.+−.9.0) %
same,"mouse heart contraction, percent of background control (0 min as 100%)","[1]; 6.0 µM antibody, 10 min",127(.+−.21) %
same,"mouse heart contraction, percent of background control (0 min as 100%)","[1]; 6.0 µM antibody, 15 min",137(.+−.16) %
same,"mouse heart contraction, percent of background control (0 min as 100%)","[1]; 6.0 µM antibody, 20 min",143(.+−.30) %
same,first order rate constant of increase in mouse heart contraction,[1]; 6.0 mM antibody,2.16 %/min
same,"mouse heart contraction, percent of background control (0 min as 100%)","[1]; 6.0 mM antibody, 5 min",115(.+−.9.0) %
same,"mouse heart contraction, percent of background control (0 min as 100%)","[1]; 6.0 mM antibody, 10 min",127(.+−.21) %
same,"mouse heart contraction, percent of background control (0 min as 100%)","[1]; 6.0 mM antibody, 15 min",137(.+−.16) %
same,"mouse heart contraction, percent of background control (0 min as 100%)","[1]; 6.0 mM antibody, 20 min",143(.+−.30) %
same,"mouse heart contraction, percent of background control (0 min as 100%)",[1]; 5 min,108(.+−.5.3) %
same,"mouse heart contraction, percent of background control (0 min as 100%)",[1]; 10 min,113(.+−.7) %
same,"mouse heart contraction, percent of background control (0 min as 100%)",[1]; 15 min,116(.+−.10) %
same,"mouse heart contraction, percent of background control (0 min as 100%)",[1]; 20 min,122(.+−.9.0) %
same,positive inotropic effect (ventricular pressure-volume loops),"[1]; normal mouse heart left ventricle, 6.0 µM in PBS, pH 7.2, total 150 ml at 5 ml/min",dramatically induced a reversible positive inotropic effect
same,intracellular Ca2+,rat cardiac myocytes,markedly increased
same,binding to the (Na++K+)-ATPase on the surface of the cell membrane (immunofluorescent staining),(Na^++K^+)-ATPase [2]; rat cardiac myocytes and African green monkey CV-1 cells,specifically binds; also recorded: binds to its antigenic site
same,(Na++K+)-ATPase activity,(Na^++K^+)-ATPase [3],without inhibiting
"DVEDSYGQQWTYEQR [peptide of the H7-H8 domain of (Na++K+)-ATPase alpha-subunit, injected as vaccine to generate endogenous KX-1 antibody]",rate of progression of heart failure (cardiac function),heart failure rats,significantly decreased the progression of heart failure; also recorded: significantly delayed the rate of the progression of heart failure
"C[C@]12CC[C@H]3[C@@H](CC[C@]4(O)C[C@@H](O)CC[C@]34C=O)[C@@]1(O)CC[C@@H]2C1=CC(=O)OC1 [strophanthidin, reference compound]",competition with the Jianye-2 antibody binding site (Jianye-2 antibody staining in presence of competitor),(Na^++K^+)-ATPase [2],compete with the Jianye-2 antibody binding site
"C[C@@H]1O[C@@H](O[C@H]2C[C@@H](O)[C@]3(CO)[C@H]4[C@H](O)C[C@]5(C)[C@@H](C6=CC(=O)OC6)CC[C@]5(O)[C@@H]4CC[C@]3(O)C2)[C@H](O)[C@H](O)[C@H]1O [ouabain, reference compound]",competition with the Jianye-2 antibody binding site (Jianye-2 antibody staining in presence of competitor),(Na^++K^+)-ATPase [2],compete with the Jianye-2 antibody binding site
